According to paper PMC6014686, “Thienopyrimidinone Based Sirtuin-2 (SIRT2)-Selective Inhibitors Bind in the Ligand Induced Selectivity Pocket” (Journal of Medicinal Chemistry, 2017):
“Also recorded” adds a separate entry of the source. Where two headings read alike, the source gives them in different places.

Key:
SIRT2 [1] = target: T1, SIRT2 (Homo sapiens, UniProt Q8IXJ6); assay: SIRT2 enzymatic assay with fluorogenic p53 peptide substrate RHKK(Ac)-AMC; format: biochemical; conditions: for increase in potency over 9a: SIRT2 IC50 ratio to 9a
T1 sequence (Q8IXJ6 1-389): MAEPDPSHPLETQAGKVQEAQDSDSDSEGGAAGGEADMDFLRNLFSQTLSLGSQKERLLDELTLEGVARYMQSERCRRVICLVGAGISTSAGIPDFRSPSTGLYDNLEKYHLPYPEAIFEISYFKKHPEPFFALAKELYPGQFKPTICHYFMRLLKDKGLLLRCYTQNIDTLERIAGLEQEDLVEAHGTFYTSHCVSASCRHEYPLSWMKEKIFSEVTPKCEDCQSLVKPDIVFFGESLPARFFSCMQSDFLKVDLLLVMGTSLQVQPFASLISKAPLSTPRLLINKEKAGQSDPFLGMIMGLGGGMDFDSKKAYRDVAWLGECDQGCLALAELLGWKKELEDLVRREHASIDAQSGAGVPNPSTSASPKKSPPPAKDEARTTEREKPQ
Protocol: The newly synthesized analogues, based on our previously validated thienopyrimidinone scaffold, were designed to contain a variety of N-3 (columns a–i, Table 1) and N-7′ substituents (rows 9–49, Table 1), with the aim to conduct a relatively broad survey of the SAR features of this scaffold. These compounds were all synthesized according to the previously disclosed method[81] (Schemes SS1 and SS2, Supporting Information) and assessed as racemates. SIRT2 inhibitory activity was assessed using a validated SIRT2 assay, based on a fluorogenic peptide substrate derived from p53 (see Experimental Section). For this assay, suramin was used as a positive control and gave similar inhibitory activity to that observed previously.[83] A vehicle (DMSO) was used as the negative control. SIRT2 inhibitory activity was measured at two compound concentrations, 1 μM (n = 2) and 10 μM (n = 2) for all compounds.
Enzymatic assays were performed by Reaction Biology Corporation (http://www.reactionbiology.com) as described before.[81] In vitro SIRT assays were conducted by using the fluorogenic peptide substrate from p53 residues 379–382 RHKK(Ac)-AMC for SIRT1–3. The assay buffer contained 50 mM Tris-HCl, pH 8.0, 137 mM NaCl, 2.7 mM KCl, 1 mM MgCl2, 1 mg mL^–1 bovine serum albumin, and 1% DMSO. The protocol involved a two-step procedure. The fluorogenic substrate with the acetylated lysine side chain was incubated with the SIRT enzyme to produce the deacetylated products, which were then digested in the second step by the addition of a developer to produce the fluorescent signal proportional to the amount of deacetylated substrates. Deacetylation of substrate peptides was used as a read out of the SIRT activity. All compounds were freshly prepared as 10 mM stock solutions in DMSO and serially diluted to the indicated concentration in the reaction. All test compounds were preincubated with the human SIRTs for about 10 min before commencing the reaction through the addition of substrate. Fluorescence was read (λex, 360 nm; λem, 460 nm) using an EnVision Multilabel Plate Reader (PerkinElmer). The percentages of enzyme activity (relative to DMSO controls) and IC50 values were calculated using the GraphPad Prism 4 program based on a sigmoidal dose–response equation. The number of replicates is stated in the corresponding text.

SIRT1 [2] = conditions: Figure 1, cited from earlier work; for IC50: differing in vitro assays and conditions
[3] = test system: acetylated (lysine-40) α-tubulin in MCF-7 cells; assay: Tubulin acetylation assay, Western blot in MCF-7 cells with TSA; conditions: 0-50 μM for 24 h with 50 nM TSA, N = 3
SIRT1 [4] = target: T2, SIRT1 (Homo sapiens, UniProt Q96EB6); assay: SIRT1 enzymatic assay with fluorogenic p53 peptide substrate RHKK(Ac)-AMC; format: biochemical; conditions: Table 3
T2 sequence (Q96EB6 1-747): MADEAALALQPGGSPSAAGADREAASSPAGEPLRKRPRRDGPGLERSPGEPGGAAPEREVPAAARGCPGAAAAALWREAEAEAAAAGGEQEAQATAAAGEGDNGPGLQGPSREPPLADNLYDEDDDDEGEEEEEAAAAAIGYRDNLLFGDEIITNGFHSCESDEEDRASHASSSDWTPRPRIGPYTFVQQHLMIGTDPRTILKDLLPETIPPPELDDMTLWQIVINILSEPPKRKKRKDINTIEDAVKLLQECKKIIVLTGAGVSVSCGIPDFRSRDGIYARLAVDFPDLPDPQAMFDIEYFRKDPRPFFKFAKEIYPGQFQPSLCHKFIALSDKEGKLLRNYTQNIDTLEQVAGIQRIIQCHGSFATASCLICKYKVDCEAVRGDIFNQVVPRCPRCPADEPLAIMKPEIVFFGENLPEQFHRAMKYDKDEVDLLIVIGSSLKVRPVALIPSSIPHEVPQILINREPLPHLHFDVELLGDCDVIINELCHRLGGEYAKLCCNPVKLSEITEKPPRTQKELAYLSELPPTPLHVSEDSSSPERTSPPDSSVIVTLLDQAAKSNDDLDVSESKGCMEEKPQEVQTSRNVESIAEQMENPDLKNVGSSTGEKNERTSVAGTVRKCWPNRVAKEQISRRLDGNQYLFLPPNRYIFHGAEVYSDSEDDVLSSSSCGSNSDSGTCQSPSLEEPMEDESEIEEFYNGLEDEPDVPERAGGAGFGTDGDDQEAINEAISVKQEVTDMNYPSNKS

SIRT3 [5] = target: T3, SIRT3 (Homo sapiens, UniProt Q9NTG7); assay: SIRT3 enzymatic assay with fluorogenic p53 peptide substrate RHKK(Ac)-AMC; format: biochemical; conditions: Table 3
T3 sequence (Q9NTG7 1-399): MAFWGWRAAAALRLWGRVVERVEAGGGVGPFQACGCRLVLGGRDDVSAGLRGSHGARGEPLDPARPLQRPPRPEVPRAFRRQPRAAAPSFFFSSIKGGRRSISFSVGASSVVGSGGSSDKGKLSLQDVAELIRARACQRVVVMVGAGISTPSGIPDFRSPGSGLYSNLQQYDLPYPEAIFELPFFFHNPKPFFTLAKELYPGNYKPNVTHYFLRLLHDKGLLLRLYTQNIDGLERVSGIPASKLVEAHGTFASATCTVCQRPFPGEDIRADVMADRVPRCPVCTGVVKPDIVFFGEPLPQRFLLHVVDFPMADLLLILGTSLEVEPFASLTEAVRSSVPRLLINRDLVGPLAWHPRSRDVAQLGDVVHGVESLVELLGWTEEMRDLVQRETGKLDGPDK

SIRT2 [6] = test system: SIRT2; design: method as in PMID 15780941, PMID 26982234, PMID 25275824, PMID 11483616, PMID 16618762; conditions: Figure 1; differing in vitro assays and conditions; cited from earlier work
SIRT3 [7] = conditions: Figure 1, cited from earlier work
SIRT6 = test system: SIRT6; design: method as in PMID 25672491; conditions: Figure 1; cited from earlier work
[8] = supplement CSV, SIRT2, 10uM, read-out: Inhibition@10uM

COc1cccc(Cn2cnc3sc4c(c3c2=O)CCC(NCc2ccco2)C4)c1 (stereo not shown) [28h]
inhibition at 10 µM (SIRT2 [1]; [8]): 33.4%

COc1cccc(Cn2cnc3sc4c(c3c2=O)CCC(NCc2cncnc2)C4)c1 (stereo not shown) [22h]
inhibition at 10 µM (SIRT2 [1]; [8]): 18.3%

COc1ccccc1NC1CCc2c(sc3ncn(Cc4cccc(-c5ccccc5)c4)c(=O)c23)C1 (stereo not shown) [35i]
inhibition at 10 µM (SIRT2 [1]; [8]): 26.4%

COc1cccc(Cn2cnc3sc4c(c3c2=O)CCC(NCCc2cccnc2)C4)c1 (stereo not shown) [31h]
inhibition at 10 µM (SIRT2 [1]; [8]): 40.5%

N#C/C(=C\c1ccc(-c2cc(Cl)ccc2Cl)o1)C(=O)Nc1cccc2ncccc12 [AGK2]
IC50 (SIRT1 [2]): > 50 µM
effect on α-tubulin acetylation level [3]: showed significant increase of α-tubulin acetylation at 10 to 50 μM

6-(2-Aminoethyl)-3-((2-methoxynaphthalen-1-yl) methyl)-5-methylthieno [2,3-d] pyrimidin-4(3H)-one [56a]
SIRT2 inhibitory activity (in words) (SIRT2 [1]): inactive
SIRT2 percentage inhibition (at 10 μM) (SIRT2 [1]; Table 2 middle value, 10 μM compound): 25%
Inhibition@10uM (SIRT2 [1]; supplement CSV, SIRT2, 10uM): 24.87

COc1ccc2ccccc2c1Cn1cnc2sc(CCN(C)C)c(C)c2c1=O [57a]
SIRT2 inhibitory activity (in words) (SIRT2 [1]): inactive

COc1ccc(Cn2cnc3sc4c(c3c2=O)CCC(NCc2c(C)noc2C)C4)c2ccccc12 (stereo not shown) [29c]
SIRT2 selectivity over SIRT1 (SIRT1 [4]): > 200 fold
SIRT2 selectivity over SIRT3 (SIRT3 [5]): ~30 fold
effect on α-tubulin acetylation level [3]: increased levels of α-tubulin acetylation in a dose dependent manner; also recorded: increased the α-tubulin acetylation level at 10 μM and retained consistent to 50 μM

CC1(C)Cc2c(-c3ccc(Cl)cc3)n[nH]c2C(C(N)=O)C1 (stereo not shown) [compound 7]
IC50 (SIRT2 [6]): 1700 nM
IC50 (SIRT1 [2]): 0.8 µM

COc1ccccc1NC1CCc2c(sc3ncn(Cc4cccc5ccccc45)c(=O)c23)C1 (stereo not shown) [35b]
inhibition at 10 µM (SIRT2 [1]; [8]): 22.3%

O=c1c2c3c(sc2ncn1Cc1ccccc1)CC(NCc1cncnc1)CC3 (stereo not shown) [22g]
inhibition at 10 µM (SIRT2 [1]; [8]): 17.5%

O=c1c2c3c(sc2ncn1Cc1ccccc1)CC(NCC1CCCO1)CC3 (stereo not shown) [25g]
SIRT2 inhibitory activity (in words) (SIRT2 [1]): lacking in vitro activity against SIRT2
effect on α-tubulin acetylation level [3]: no effect on tubulin acetylation levels; also recorded: showed no effect on the acetylation of α-tubulin

COc1cccc(NC2CCc3c(sc4ncn(Cc5cccc(-c6ccccc6)c5)c(=O)c34)C2)c1 (stereo not shown) [37i]
inhibition at 10 µM (SIRT2 [1]; [8]): 29.6%

O=c1c2c3c(sc2ncn1Cc1ccccc1)CC(NCc1ccncc1)CC3 (stereo not shown) [20g]
inhibition at 10 µM (SIRT2 [1]; [8]): 32.6%

COc1ccc(CNC2CCc3c(sc4ncn(Cc5c(OC)ccc6ccccc56)c(=O)c34)C2)cn1 (stereo not shown) [23a]
inhibition at 10 µM (SIRT2 [1]; [8]): 87.9%

CSc1ccc(CSc2cccc(C(=O)Nc3ccc(C#N)cc3)c2)cc1 [compound 5]
IC50 (SIRT2 [6]): 2400 nM
SIRT1 inhibition @ 10 μM (SIRT1 [2]; 10 μM): 3%
SIRT3 inhibition @ 10 μM (SIRT3 [7]; 10 μM): no inhibition

O=c1[nH]c(=S)[nH]c(-c2ccccc2)c1Cc1c(O)ccc2ccccc12 [Cambinol, cambinol]
IC50 (SIRT2 [6]): 51000 nM
IC50 (SIRT1 [2]): 56 µM

N#Cc1ccc(CNC2CCc3c(sc4ncn(Cc5cccc6cccnc56)c(=O)c34)C2)cc1 (stereo not shown) [15e, 4-(((4-Oxo-3-(quinolin-8-ylmethyl)-3,4,5,6,7,8-hexahydrobenzo[4,5]thieno[2,3-d]pyrimidin-7-yl)amino)methyl)benzonitrile]
SIRT2 selectivity over SIRT1 (SIRT1 [4]): more than 100 fold
SIRT2 selectivity over SIRT3 (SIRT3 [5]): more than 100 fold
SIRT2/SIRT3 selectivity (SIRT3 [5]; ratio of IC50 values): >256

Cc1cc(C)nc(SCC(=O)Nc2ncc(Cc3cccc4ccccc34)s2)n1 [compound 8, SirReal2]
IC50 (SIRT1 [2]): > 100 µM
IC50 (SIRT6): > 200 µM

COc1cccc(Cn2cnc3sc4c(c3c2=O)CCC(NCC2CCCO2)C4)c1 (stereo not shown) [25h]
inhibition at 10 µM (SIRT2 [1]; [8]): 3.44%

O=c1c2c3c(sc2ncn1Cc1ccccc1)CC(NCCc1cccnc1)CC3 (stereo not shown) [31g]
inhibition at 10 µM (SIRT2 [1]; [8]): 26.7%

COc1cccc(Cn2cnc3sc4c(c3c2=O)CCC(NCc2ccccn2)C4)c1 (stereo not shown) [21h]
inhibition at 10 µM (SIRT2 [1]; [8]): 18.2%

O=c1c2c3c(sc2ncn1Cc1cccc(-c2ccccc2)c1)CC(NC1CCCc2ccccc21)CC3 (stereo not shown) [46i]
inhibition at 10 µM (SIRT2 [1]; [8]): 21.6%

O=c1c2c3c(sc2ncn1Cc1cccc2cccnc12)CC(NC1CCCC1)CC3 (stereo not shown) [41e]
inhibition at 10 µM (SIRT2 [1]; [8]): 30.5%

COc1cccc(Cn2cnc3sc4c(c3c2=O)CCC(NCc2c(C)nn(C)c2C)C4)c1 (stereo not shown) [27h]
inhibition at 10 µM (SIRT2 [1]; [8]): 14.4%

COc1cccc(Cn2cnc3sc4c(c3c2=O)CCC(NCc2ccncc2)C4)c1 (stereo not shown) [20h]
inhibition at 10 µM (SIRT2 [1]; [8]): 57.6%

COc1ccc(CNC2CCc3c(sc4ncn(Cc5c(OC)ccc6ccccc56)c(=O)c34)C2)cc1 (stereo not shown) [18a]
increase in potency over 9a (SIRT2 [1]): 32 fold

NC(=O)c1cccnc1 [Nicotinamide, nicotinamide]
IC50 (SIRT1 [2]): 85 µM

COc1ccccc1CNC1CCc2c(sc3ncn(Cc4c(OC)ccc5ccccc45)c(=O)c23)C1 (stereo not shown) [16a]
increase in potency over 9a (SIRT2 [1]): 9 fold

O=C(Nc1cnccc1Br)c1cccc(-c2ccc3ccccc3c2)c1 [compound 4]
IC50 (SIRT2 [6]): 600 nM
IC50 (SIRT1 [2]): > 100 µM
IC50 (SIRT3 [7]; differing in vitro assays): > 100 µM

COc1ccc(Cn2cnc3sc4c(c3c2=O)CCC(NCc2cccc(Cl)c2)C4)c2ccccc12 (stereo not shown) [12c]
inhibition at 10 µM (SIRT2 [1]; 10 μM compound, n = 2, read-out: SIRT2 percentage inhibition (at 10 μM)): -6.5%
inhibition at 10 µM (SIRT2 [1]; [8]): -6.5%
